In patent publication US20240024216A1, “METHODS AND MATERIALS FOR TREATING HAIR LOSS” (The Penn State Research Foundation, priority 2021, published 2024):

Assays:
[1] = system: keratinocytes co-cultured with SCs (10:1); test: Co-culture scratch assay, keratinocytes with Schwann cells; assay type: cell-based, human
Description: (§1) To determine the influence of Schwann cells and fibroblast on keratinocytes migration and proliferation wound healing scratch assay was conducted. The co-culture experiment performed in Keratinocytes to either Schwann cells or fibroblasts in a ratio of 10:1 with same proposition of their respective medium were seeded on 96-well ImageLock microplate for 6 hours and the wells were pre-coated with collagen-I plate. For the drug treatment cells were pretreated with 4-AP prior to coating for 16-18 hours. Next, the wound scratch was created and treated cells with and without 4-AP in medium. Imaged for every hour until 24 hour and analyzed for percent of closure as described above procedure.

[2] = system: human foreskin primary keratinocytes; test: Scratch wound healing migration assay, primary keratinocytes; assay type: cell-based
Description: Keratinocytes isolation, culture conditions and characterization—The isolated epidermis was placed in a petri dish containing HEPES buffer for 10 minutes at room temperature, then treated with trypsin at 37° C. until the epidermis became loose and medium cloudy due to keratinocytes release. The cloudy medium was collected and trypsin activity neutralized using fetal bovine serum (FBS) in 1:1 ratio. The epidermis suspended keratinocytes were centrifuges at 1500 rpm for 5 minutes. The pellet resuspended in KGM-GOLD keratinocytes medium (Lonza KGM gold and supplements, Catlog No. 00192151 and 00192152). The isolated foreskin cultured on a culture dish and placed at 37° C. in 5% CO2 incubator for 1-2 days to allow keratinocytes to adhere. Adhere keratinocytes were continued incubation in KGM-Gold medium until cells reach about 80% confluent.
Keratinocytes/Schwann cells/fibroblasts (7×10^4 cells/well keratinocytes and 3.5×10^4 cells/well of SCs and FBs) with their respective medium were seeded on pre-coated either with collagen-I/PLL/no 96-well ImageLock microplate for 6 hours (Incucyte-sartorius plate, Cat log 4379). For the drug treatment cells were pretreated with 4-AP prior to coating for 16-18 hours. Next, the wound scratch was created using IncuCyte automated system (Essen BioScience). After scratches the cells washed with PBS and the respective cells medium was added with or without 1 mM of 4-AP. The plate was incubated in Incucyte automated imaging system, wound healing and cells migration was monitored by time-lapse photography capturing every hour from 0 to 42 hours. The relative area of wound size and cells migration at each time point was analyzed using IncuCyte™ Scratch Wound Cell Migration Software Module (Essen BioScience) and the percent of wound healing was calculated from the area measured after scratching relative to the basal area as expressed in pixels.
Indirect immunofluorescence was used to identify, characterize and to analyze the proliferation after 4-AP treatment. […]

[3] = system: human foreskin dermal primary Schwann cells; test: Scratch wound healing migration assay, primary dermal Schwann cells; assay type: cell-based
Description: Dermal Schwann cells isolation culture conditions and characterization—The separated dermis was minced into small pieces and placed in a petri dish containing collagenase in DMEM basal medium at 37° C. for 2.5 hours. The dermis was completely dissociated and the medium was cloudy. The dissociated medium was collected in tube and centrifuged at 1500 rpm for 5 minutes. The pellet was resuspended in complete DMEM medium, added on poly-L-lysine coated dish and the dish was incubated at 37° C. in 5% CO2 incubator for overnight. Next day, adhered cells were treated with 10 μM cytosine arabinoside containing DMEM complete medium and incubated at 37° C. in 5% CO2 incubator for 24 hours. After, the cells were cultured in Schwann cells culture medium (ScienCell Research, Catlog No. 1701) until the cells reached about 95% confluence.
Keratinocytes/Schwann cells/fibroblasts (7×10^4 cells/well keratinocytes and 3.5×10^4 cells/well of SCs and FBs) with their respective medium were seeded on pre-coated either with collagen-I/PLL/no 96-well ImageLock microplate for 6 hours (Incucyte-sartorius plate, Cat log 4379). For the drug treatment cells were pretreated with 4-AP prior to coating for 16-18 hours. […] The plate was incubated in Incucyte automated imaging system, wound healing and cells migration was monitored by time-lapse photography capturing every hour from 0 to 42 hours. […]

[4] = system: human foreskin dermal primary fibroblast; test: Scratch wound healing migration assay, primary dermal fibroblasts; assay type: cell-based
[5] = system: keratinocytes co-cultured with fibroblasts (10:1); test: Co-culture scratch assay, keratinocytes with fibroblasts; assay type: cell-based, human; details: measured at 15 hours; 72% in non-treated
Description: as §1

[6] = system: human foreskin primary keratinocytes; test: Keratinocyte scratch assay with 4-AP, NGF and NGF-antibody; assay type: cell-based; details: at 12 hours
Description: Keratinocytes (7×10^4 cells/well) with KC medium were seeded on collagen-I pre-coated 96-well ImageLock microplate for 6 hours. For the drug treatment cells were pretreated with 4-AP prior to coating for 16-18 hours. Next, the wound scratch was created using IncuCyte automated system. After scratches the cells washed with PBS and the respective cells medium was added with individual 1 mM of 4-AP and 200 ng/ml of NGF (MyBioSource, Inc., Catlog No. MBS7114974) in keratinocytes medium and combination of 1 mM of 4-AP & 200 ng/mL NGF with or without 10 μg/ml of NGF-antibody (ThermoFisher Scientific, Catlog No. MA5-32067). The plate was incubated in Incucyte automated imaging system, wound healing and cells migration imaged for every hour until 24 hour and analyzed for percent of closure as described above procedure.

## Nc1ccncc1 [4-AP, 4-aminopyridine]
[1]; at 15 hours, 80% in non-treated
  percentage of wound closure: 98%
[1]; with 4-AP, 20 hours without treatment
  time to scratch closure: ≤ 15 h
[2]; 1 mM 4-AP, control closed at 32 hours
  time of complete scratch closure: 18 h
[2]; 4-AP treated vs no treatment
  SOX10 and NGF expression in keratinocytes: both increased
  expression of keratins associated with keratinocyte differentiation (K10): did not increase
[3]; 1 mM 4-AP, 23 hours without treatment
  time to 80% scratch closure: 11 h
[3]; compared to controls
  SOX10 and NGF expression in SCs: increased
[4]; 1 mM 4-AP vs no treatment
  fibroblast migration: unaffected
[4]; 4-AP exposed vs no treatment
  vimentin and α-SMA protein expression (fibroblast to myofibroblast conversion): increased
[5]
  scratch closure: 93%
[6]; 56% in control cultures, 1 mM 4-AP, 200 ng/ml NGF
  scratch closure: 75%
[6]; plus 10 μg/ml NGF-antibody
  scratch closure with NGF-neutralizing antibody: 67%
